The test system of one data set is NCI-H-522 cells. Description: Cell cytotoxicity assay, NCI-H-522 cells. As to conditions: Homo sapiens, NCI-H522, 72 hours, percent cytotoxicity against DMSO control; for cytotoxicity at 1 µM: 1 μM compound, read-out: Cell toxicity NCI-H-522 cells 1 μM; for cytotoxicity at 10 µM: 10 μM compound, read-out: Cell toxicity NCI-H-522 cells 10 μM. In kind it is cell-based. From the text:
(§1) The following human derived non-small cell lung cancer cell lines were used to test the efficiency of the compounds to cause cell death and assess the anti-cancer properties of said compounds: 1. A549 cells: adenocarcinomic human alveolar basal epithelial cells; these cells are used as models for the study of lung cancer and the development of drug therapies against it • 2. NCI-H-460 cells are also human lung cancer cells, and • 3. NCI-H-522 cells are also human lung cancer cells.
(§2) 500 cells/well/30 μL were seeded in a 384 well cell culture plate. Incubated over night at 37° C., 5% CO2 in cell culture incubator. 10 μL of 4× compound was added to the plates, and incubated for 72 hours at 37° C., 5% CO2 in cell culture incubator. Assay DMSO control were included for 0% cytotoxicity control. Assay was terminated by addition of 10 μL of the reagent CTG 2.0 detection reagent #G9242. Plates were incubated for 20 minute incubation at room temperature with shaking Plate were read in Envision. Ultrasensitive luminescence and data was analyzed and percent cytotoxicity of compounds was determined against DMSO control.
(§3) All the compounds, A1-A116, were tested for cell toxicity using said non-small cell lung cancer cell lines using the above described method.

The test system of another data set is NCI-H-460 cells. In words: Cell cytotoxicity assay, NCI-H-460 cells. As to conditions: Homo sapiens, NCI-H460, 72 hours, percent cytotoxicity against DMSO control; for cytotoxicity at 1 µM: 1 μM compound, read-out: Cell toxicity NCI-H-460 cells 1 μM; for cytotoxicity at 10 µM: 10 μM compound, read-out: Cell toxicity NCI-H-460 cells 10 μM. In kind it is cell-based.
Description: as §1, §2, §3

Data set [1] concerns Non-small cell lung cancer cell lines. Description: Cell Titer Glo assay, overall statement. The class given is cell-based, human. As to conditions: summary in words.
Description: as §1
(§4) Cells were cultured and maintained in F12K+10% FBS+1× anti-anti media and RPMI+10% FBS+1× anti-anti media. Cells were trypsinised and expanded to ensure that cells are not over-confluent and are in log growth phase. On day 0, 500 cells/well were seeded in 30 μl media using cell culture treated white flat bottom 384 well plate, centrifuged at 40×g for 10 seconds and incubated overnight in […], 5% CO2 incubator. On day 1, 4× concentration of compounds were prepared in complete media, 10 μl was added to cells, centrifuged at 40×g for 10 seconds and incubated 72 hours in 37° C., 5% CO2 incubator. Compounds tested: 100 μM top, 3 fold dilution and 10 point DRC in triplicate. Final DMSO concentration was maintained at 0.5% for all compound. No compound/DMSO was used as a control. On day 4 (72 hours post treatment) plates were brought to room temperature for 10 min 10 μl of CellTiter Glo reagent was added to each well and placed the plates on an orbital shaker for 10 minutes at room temperature. Luminescence signal was read on the Envision plate reader using the ultra-sensitive luminescence protocol. Data was plotted and analyzed using the below formula: DMSO control treated cells RLU considered as 100% cell viability.
(§5) Table 7 provides the IC50 values for cell toxicity of most efficient derivatives of Formula A.
(In general: Cellular ATP, detected with luciferase, serves as a proxy for viable cell number.)

Another data set relates to NCI-H-522. In words: CellTiter Glo assay, NCI-H-522. The class given is cell-based. The settings on record: Homo sapiens, NCI-H522; 72 hours, 10 point DRC, 100 μM top; read-out: Cytotoxicity IC50 NCI-H-522.
Description: as §1, §4, §5

The next data set deals with A549. In words: CellTiter Glo assay, A549. In kind it is cell-based. As to conditions: Homo sapiens, 72 hours, 10 point DRC, 100 μM top, read-out: Cytotoxicity IC50 A549.
Description: as §1, §4, §5

Data set [2] has as its system Non-small cell lung cancer cell lines. Description: Cell toxicity assay, overall statement. In kind it is cell-based. As to conditions: summary in words of Table 6.
Description: as §1, §2, §3
These selected derivatives of Formula A were further tested to confirm their efficiency as anti-cancer compounds.

For a further data set, the system named is A549 cells. Description: Cell cytotoxicity assay, A549 cells. In kind it is cell-based. The settings on record: Homo sapiens, 72 hours, percent cytotoxicity against DMSO control; for cytotoxicity at 1 µM: 1 μM compound, read-out: Cell toxicity A549 cells 1 μM; for cytotoxicity at 10 µM: 10 μM compound, read-out: Cell toxicity A549 cells 10 μM.
Description: as §1, §2, §3

A further data set deals with NCI-H-460. Description: CellTiter Glo assay, NCI-H-460. In kind it is cell-based. The settings on record: Homo sapiens, NCI-H460; 72 hours, 10 point DRC, 100 μM top; read-out: Cytotoxicity IC50 NCI-H-460.
Description: as §1, §4, §5

The structures appear in SMILES notation.

What is called IC50 is the concentration needed to halve the response being measured. In the case of `COc1cc(Nc2nc(N3CCN(c4ccnc5cc(Cl)ccc45)CC3)cc(C(F)(F)F)n2)cc(OC)c1` [Compound A1, 4-(4-(7-chloroquinolin-4-yl)piperazin-1-yl)-N-(3,5-dimethoxyphenyl)-6-(trifluoromethyl)pyrimidin-2-amine], the cytotoxicity at 1 µM was 21% with NCI-H-522 cells, 19% in the data set on NCI-H-460 cells and 42% with A549 cells. Also, the cytotoxicity at 10 µM in the data set on NCI-H-522 cells was found to be 50%; in the data set with NCI-H-460 cells it was 82%; in the data set with A549 cells, 97%. Also, the “efficiency in cell toxicity against Non-small cell lung cancer cell lines” value in data set [1] is recorded as “best efficiency”. Further, the results for the half-maximal inhibitory concentration (IC50) with NCI-H-522, in the data set with A549 and in the data set on NCI-H-460 were 3040 nM, 1590 nM and 2410 nM, respectively. Also, the “activity against Non-small cell lung cancer (cell toxicity)” value in data set [2] is recorded as “active”.

Regarding `FC(F)(F)c1cc(N2CCN(c3ccnc4cc(Cl)ccc34)CC2)nc(N2CCOCC2)n1` [Compound A24, 4-(4-(4-(7-chloroquinolin-4-yl)piperazin-1-yl)-6-(trifluoromethyl)pyrimidin-2-yl)morpholine], the cytotoxicity at 1 µM in the data set on NCI-H-522 cells was 0%; in the data set with NCI-H-460 cells, -9%; in the data set on A549 cells, -1%. For the same compound, the figures for the cytotoxicity at 10 µM in the data set on NCI-H-522 cells, in the data set with NCI-H-460 cells and with A549 cells were 8%, -6% and 22%, respectively. Besides, the “activity against Non-small cell lung cancer (cell toxicity)” value in data set [2] is “active”.

As for `Fc1cccc(F)c1Nc1nc(N2CCN(c3ccnc4cc(Cl)ccc34)CC2)cc(C(F)(F)F)n1` [Compound A33, 4-(4-(7-chloroquinolin-4-yl)piperazin-1-yl)-N-(2,6-difluorophenyl)-6-(trifluoromethyl)pyrimidin-2-amine], the cytotoxicity at 1 µM in the data set with NCI-H-522 cells is 2%; with NCI-H-460 cells it was -9%; in the data set on A549 cells, 8%. The cytotoxicity at 10 µM in the data set with NCI-H-522 cells is 17%; in the data set with NCI-H-460 cells it was 3%; in the data set on A549 cells, -8%. For the same compound, the “activity against Non-small cell lung cancer (cell toxicity)” value in data set [2] is given as “active”.

Turning to `FC(F)(F)c1cc(N2CCN(c3ccnc4cc(Cl)ccc34)CC2)nc(Nc2ccncc2)n1` [Compound A36, 4-(4-(7-chloroquinolin-4-yl)piperazin-1-yl)-N-(pyridin-4-yl)-6-(trifluoromethyl)pyrimidin-2-amine], the values for the cytotoxicity at 1 µM in the data set with NCI-H-522 cells, with NCI-H-460 cells and with A549 cells were 2%, -11% and 0%, respectively. In addition, the cytotoxicity at 10 µM in the data set with NCI-H-522 cells was 72%; in the data set on NCI-H-460 cells it was 98%; in the data set on A549 cells, 99%. In data set [2], the “activity against Non-small cell lung cancer (cell toxicity)” value is “active”.

For `Cc1cc(N2CCN(c3ccnc4cc(Cl)ccc34)CC2)nc(Nc2ccccc2)n1` [Compound A39, 4-(4-(7-chloroquinolin-4-yl)piperazin-1-yl)-6-methyl-N-phenylpyrimidin-2-amine], the cytotoxicity at 1 µM in the data set with NCI-H-522 cells was 1%; in the data set with NCI-H-460 cells it was -11%; in the data set on A549 cells it was 4%. The cytotoxicity at 10 µM is 15% with NCI-H-522 cells, -4% with NCI-H-460 cells and 18% with A549 cells. Besides, in data set [2], the “activity against Non-small cell lung cancer (cell toxicity)” value is reported as “active”.

Regarding `FC(F)(F)c1cc(N2CCN(c3ccnc4cc(Cl)ccc34)CC2)nc(Nc2ccccc2)n1` [Compound A40, 4-(4-(7-chloroquinolin-4-yl)piperazin-1-yl)-N-phenyl-6-(trifluoromethyl)pyrimidin-2-amine], the cytotoxicity at 1 µM is 6% in the data set with NCI-H-522 cells, -12% with NCI-H-460 cells and 15% with A549 cells. For the same compound, the cytotoxicity at 10 µM with NCI-H-522 cells is 11%; with NCI-H-460 cells, -7%; with A549 cells it was 8%. Further, the “activity against Non-small cell lung cancer (cell toxicity)” value in data set [2] is listed as “active”.

For the compound `COc1cc(Nc2nccc(N3CCN(c4ccnc5cc(Cl)ccc45)CC3)n2)cc(OC)c1` [Compound A41, 4-(4-(7-chloroquinolin-4-yl)piperazin-1-yl)-N-(3,5-dimethoxyphenyl)pyrimidin-2-amine], the cytotoxicity at 1 µM worked out at 7% in the data set on NCI-H-522 cells, 2% with NCI-H-460 cells and 23% in the data set with A549 cells. For the same compound, the cytotoxicity at 10 µM in the data set on NCI-H-522 cells was 56%; in the data set on NCI-H-460 cells it was 28%; with A549 cells, 42%. The “activity against Non-small cell lung cancer (cell toxicity)” value in data set [2] is on record as “active”.

Take `COc1cc(Nc2nc(C)cc(N3CCN(c4ccnc5cc(C(F)(F)F)ccc45)CC3)n2)cc(OC)c1` [Compound A44, N-(3,5-dimethoxyphenyl)-4-methyl-6-(4-(7-(trifluoromethyl)quinolin-4-yl)piperazin-1-yl)pyrimidin-2-amine]: the cytotoxicity at 1 µM in the data set on NCI-H-522 cells is 8%; in the data set with NCI-H-460 cells it was 0%; in the data set on A549 cells, 26%. The figures for the cytotoxicity at 10 µM in the data set with NCI-H-522 cells, in the data set on NCI-H-460 cells and in the data set on A549 cells were 26%, 7% and 18%, respectively. For the same compound, the “activity against Non-small cell lung cancer (cell toxicity)” value in data set [2] is on record as “active”.

As to `COc1cc(Nc2nc(N3CCN(c4ccnc5cc(C(F)(F)F)ccc45)CC3)cc(C(F)(F)F)n2)cc(OC)c1` [Compound A45, N-(3,5-dimethoxyphenyl)-4-(trifluoromethyl)-6-(4-(7-(trifluoromethyl)quinolin-4-yl)piperazin-1-yl)pyrimidin-2-amine], the cytotoxicity at 1 µM in the data set on NCI-H-522 cells stood at 7%; with NCI-H-460 cells it was 0%; in the data set with A549 cells, 8%. The cytotoxicity at 10 µM with NCI-H-522 cells is 55%; in the data set with NCI-H-460 cells, 12%; in the data set with A549 cells it was 83%. Moreover, in data set [2], the “activity against Non-small cell lung cancer (cell toxicity)” value is recorded as “active”.

Take `COc1cc(Nc2nc(C)cc(N3CCN(c4ncnc5ccccc45)CC3)n2)cc(OC)c1` [Compound A46, N-(3,5-dimethoxyphenyl)-4-methyl-6-(4-(quinazolin-4-yl)piperazin-1-yl)pyrimidin-2-amine]: the cytotoxicity at 1 µM is 2% in the data set with NCI-H-522 cells, -2% with NCI-H-460 cells and 25% in the data set with A549 cells. Moreover, the cytotoxicity at 10 µM in the data set on NCI-H-522 cells was 66%; in the data set with NCI-H-460 cells, 44%; with A549 cells it was 98%. Moreover, in data set [2], the “activity against Non-small cell lung cancer (cell toxicity)” value is “active”.

As to `COc1cc(Nc2nc(N3CCN(c4ncnc5ccccc45)CC3)cc(C(F)(F)F)n2)cc(OC)c1` [Compound A47, N-(3,5-dimethoxyphenyl)-4-(4-(quinazolin-4-yl)piperazin-1-yl)-6-(trifluoromethyl)pyrimidin-2-amine], the cytotoxicity at 1 µM worked out at 45% with NCI-H-522 cells, 4% in the data set with NCI-H-460 cells and 38% in the data set on A549 cells. The results for the cytotoxicity at 10 µM with NCI-H-522 cells, in the data set on NCI-H-460 cells and with A549 cells were 43%, 12% and 44%, respectively. Moreover, the “activity against Non-small cell lung cancer (cell toxicity)” value in data set [2] is “active”.

(Values after patent US20260070886A1, “QUINOLINE PIPERAZINE DERIVATIVES, PHARMACEUTICAL COMPOSITION AND USES THEREOF” (priority 2022, published 2026).)
